In this experiment the target is T1, APE1 (Homo sapiens, UniProt P27695).
T1 construct: endogenous in cells; host or cells: HEK293T (ATCC CRL-3216)
Nature of the experiment: APE1 inhibitor effect on indels and base diversification by AID or pmCDA1 fused to Cas9 nickase (D10A), HTS. Type of experiment: cell-based. The note with it: HEK293T cells, 100 μM and 200 μM, 3d, FIG. 6. The protocol:
APE1 was inhibited by using CRT0044876 (Scheme 1), which is a potent and well-known APE1 inhibitor.
To ascertain whether this compound improves base diversification profile, HEK293T cells were treated with AID or pmCDA1 fused to Cas9 nickase (D10A) in the presence of CRT0044876. After 3d, the cells were harvested and analyzed through high-throughput sequencing (HTS).

Structures are written as SMILES.

T1 sequence (P27695 whole entry): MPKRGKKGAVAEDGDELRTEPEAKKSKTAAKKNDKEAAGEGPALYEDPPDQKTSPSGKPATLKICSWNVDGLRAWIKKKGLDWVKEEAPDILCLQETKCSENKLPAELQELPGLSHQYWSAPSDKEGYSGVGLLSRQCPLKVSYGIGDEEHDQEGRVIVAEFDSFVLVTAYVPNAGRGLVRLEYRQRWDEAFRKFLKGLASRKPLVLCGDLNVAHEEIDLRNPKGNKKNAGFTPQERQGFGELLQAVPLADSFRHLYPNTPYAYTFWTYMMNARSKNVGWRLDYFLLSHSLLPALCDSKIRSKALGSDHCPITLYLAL

Take `O=C(O)c1cc2cccc([N+](=O)[O-])c2[nH]1` [CRT0044876]: the base diversification rate entry was “some decrease”. The “amount of indel generated” value (multiple target sites) is “significant decrease”.
